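Growth conditions: 96-well plates. Treatment: test compound, 48 hours, 5 concentrations. Analysis: linear interpolation between bracketing concentrations; unreached endpoints set to highest concentration. Here, GI50 denotes the concentration required for 50% inhibition of growth.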 The source made the active and inactive calls. Cut-off read from the data, not from the text of the source: active = GI50 up to about 1.1 µM and inactive = higher.
Experiments:
Test in all cases: DTP human tumour cell line panel, 48 h
[1] = tested on: MDA-MB-435
[2] = tested on: TK-10
[3] = tested on: IGROV-1
[4] = tested on: U-251
[5] = tested on: PC-3
[6] = tested on: HOP-62
[7] = tested on: EKVX
[8] = tested on: DU-145
[9] = tested on: SF-295
[10] = tested on: UACC-62
[11] = tested on: OVCAR-5
[12] = tested on: MDA-MB-231
[13] = tested on: A549
[14] = tested on: LOX IMVI
[15] = tested on: RXF 393
[16] = tested on: KM12
[17] = tested on: T47D
[18] = tested on: UACC-257
[19] = tested on: NCI-H23
[20] = tested on: SR

Structure (SMILES)	GI50 [1]	GI50 [2]	GI50 [3]	GI50 [4]	GI50 [5]	GI50 [6]	GI50 [7]	GI50 [8]	GI50 [9]	GI50 [10]	GI50 [11]	GI50 [12]	GI50 [13]	GI50 [14]	GI50 [15]	GI50 [16]	GI50 [17]	GI50 [18]	GI50 [19]	GI50 [20]
OC1OC(c2ccc[nH]2)C(F)(F)C(F)(F)C1(F)F (stereo unspecified)	> 100 µM (inactive)	> 100 µM (inactive)	> 100 µM (inactive)	> 100 µM (inactive)	> 100 µM (inactive)	> 100 µM (inactive)	> 100 µM (inactive)	> 100 µM (inactive)	> 100 µM (inactive)	> 100 µM (inactive)	> 100 µM (inactive)	> 100 µM (inactive)	> 100 µM (inactive)	> 100 µM (inactive)	> 100 µM (inactive)	> 100 µM (inactive)	> 100 µM (inactive)	> 100 µM (inactive)		
O=c1[nH]c(=S)c2cc3c(=S)[nH]c(=O)n(CCC(c4ccccc4)(c4ccccc4)c4ccccc4)c3nc2n1CCC(c1ccccc1)(c1ccccc1)c1ccccc1	> 100 µM (inactive)	> 100 µM (inactive)		> 100 µM (inactive)	> 100 µM (inactive)	> 100 µM (inactive)	> 100 µM (inactive)	> 100 µM (inactive)	> 100 µM (inactive)	> 100 µM (inactive)	> 100 µM (inactive)	59.4 µM (inactive)	> 100 µM (inactive)			> 100 µM (inactive)	> 100 µM (inactive)	> 100 µM (inactive)	> 100 µM (inactive)	
O=C(Nc1cccc(C(F)(F)F)c1)O/N=C(/Cl)CCl		> 100 µM (inactive)	62.4 µM (inactive)	39.5 µM (inactive)	96.6 µM (inactive)	> 100 µM (inactive)	> 100 µM (inactive)	> 100 µM (inactive)	49.5 µM (inactive)		21.8 µM (inactive)	17.1 µM (inactive)	> 100 µM (inactive)	19 µM (inactive)		> 100 µM (inactive)	53.5 µM (inactive)	> 100 µM (inactive)	47.3 µM (inactive)	22.6 µM (inactive)
CC(C)CCC[C@@H](C)[C@H]1CC[C@H]2[C@@H]3CC[C@H]4C[C@H](N)CC[C@]4(C)[C@H]3CC[C@]12C	27.1 µM (inactive)	16.6 µM (inactive)	11.3 µM (inactive)	13.8 µM (inactive)	5.87 µM (inactive)	20 µM (inactive)	17.7 µM (inactive)	16.4 µM (inactive)	19.3 µM (inactive)	19.2 µM (inactive)	15.4 µM (inactive)	2.84 µM (inactive)	16.9 µM (inactive)	21.3 µM (inactive)	22.2 µM (inactive)	23.6 µM (inactive)	34.4 µM (inactive)	19 µM (inactive)	26.1 µM (inactive)	
Cc1ccc(/N=C2\SC(=S)N(CCC[N+](C)(C)C)\C2=N/c2ccc(C)cc2)cc1		18.9 µM (inactive)	10.1 µM (inactive)	11.3 µM (inactive)	13.7 µM (inactive)	23.7 µM (inactive)	17 µM (inactive)			10 µM (inactive)	14.5 µM (inactive)	14.3 µM (inactive)	15.6 µM (inactive)		2.49 µM (inactive)	24.4 µM (inactive)	2.29 µM (inactive)	12 µM (inactive)	14.5 µM (inactive)	7.03 µM (inactive)
C1CNOCCCONCCCNOCCCONC1	> 100 µM (inactive)	31 µM (inactive)	56.1 µM (inactive)	31.7 µM (inactive)	27.6 µM (inactive)	50.1 µM (inactive)	50.2 µM (inactive)	58.9 µM (inactive)	93.1 µM (inactive)	> 100 µM (inactive)	> 100 µM (inactive)	26.8 µM (inactive)	91.8 µM (inactive)	> 100 µM (inactive)	20.2 µM (inactive)	> 100 µM (inactive)	11.3 µM (inactive)	41.7 µM (inactive)	> 100 µM (inactive)	
CN(C)c1ccc(/C=C2\N=C(NNc3ccccc3)NC2=O)cc1	21.5 µM (inactive)	20.8 µM (inactive)	23.4 µM (inactive)	14.3 µM (inactive)	13.2 µM (inactive)	30.3 µM (inactive)	19 µM (inactive)	28.4 µM (inactive)	21.5 µM (inactive)	28.8 µM (inactive)	31.8 µM (inactive)	13.7 µM (inactive)	20.4 µM (inactive)	27.8 µM (inactive)	18.7 µM (inactive)	13.2 µM (inactive)	11.7 µM (inactive)	15.6 µM (inactive)	20 µM (inactive)	
CC1=C(C)C(=O)OC(C(C)(O)C2(O)CC3OC34C3CC(O)C56OC5C=CC(=O)C6(C)C3CCC42C)C1 (stereo unspecified)	1.15 µM (inactive)	1.5 µM (inactive)	1.72 µM (inactive)	1.76 µM (inactive)	2.87 µM (inactive)	11 µM (inactive)	2.36 µM (inactive)	3.4 µM (inactive)	3.48 µM (inactive)	0.617 µM (active)	2.39 µM (inactive)	1.78 µM (inactive)	3.33 µM (inactive)	1.79 µM (inactive)	2.4 µM (inactive)	2.16 µM (inactive)	2.99 µM (inactive)	1.6 µM (inactive)	1.91 µM (inactive)	
CC(C)=CCCC1(Sc2ccccc2)C(=O)OCC1C=C(C)C (stereo unspecified)	32.1 µM (inactive)	34.8 µM (inactive)	16.8 µM (inactive)	27.7 µM (inactive)	31.8 µM (inactive)	48.9 µM (inactive)	19 µM (inactive)		36.7 µM (inactive)		21.3 µM (inactive)	47.2 µM (inactive)	13.5 µM (inactive)	16.5 µM (inactive)	17.1 µM (inactive)	27 µM (inactive)	22.4 µM (inactive)	17.5 µM (inactive)	31.3 µM (inactive)	
O=C(N/N=C(COc1ccc(Cl)cc1)\N=C\c1cccnc1)c1ccncc1	26.3 µM (inactive)	> 100 µM (inactive)	> 100 µM (inactive)	> 100 µM (inactive)	> 100 µM (inactive)	> 100 µM (inactive)	> 100 µM (inactive)	> 100 µM (inactive)	> 100 µM (inactive)	69 µM (inactive)	> 100 µM (inactive)	> 100 µM (inactive)	> 100 µM (inactive)	> 100 µM (inactive)	77.3 µM (inactive)	71 µM (inactive)	> 100 µM (inactive)	99.5 µM (inactive)	> 100 µM (inactive)	
COc1ccc2c(c1OC)C(C(Cl)(Cl)Cl)N1CCc3cc4c(cc3C1=C2)OCO4 (stereo unspecified)	11.1 µM (inactive)	27 µM (inactive)	25.5 µM (inactive)	3.69 µM (inactive)	24.7 µM (inactive)		42.7 µM (inactive)	16.3 µM (inactive)	9.31 µM (inactive)	11.8 µM (inactive)	72.6 µM (inactive)	23.5 µM (inactive)	35.6 µM (inactive)	32.7 µM (inactive)		7.6 µM (inactive)	10.8 µM (inactive)	7.16 µM (inactive)	12.9 µM (inactive)	

— ChEMBL document CHEMBL1201862, “PubChem BioAssay data set” (2004)
